Source: patent publication US12624034B2, “Non-covalent modifiers of AKT1 and uses thereof” (Terremoto Biosciences, Inc., priority 2023, dated 2026)
Read-outs that look alike come from different tables or passages of the source.

Legend:
[1] = test system: LAPC4 prostate cancer cells, which express the AKT1 E17K allele; test: Antiproliferative effects in LAPC4 cells (CellTiter Glo, 72 h); assay type: cell-based; details: read-out: LAPC4 proliferation IC50
Outline: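 Cells grown in IMDM supplemented with 12% FBS plus 1% P/S were treated for 72 h with DMSO-dissolved compounds. ATP-based luminescence was fitted to a log(inhibitor) versus response Hill model, giving IC50.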

AKT1 E17K = target: T1, AKT1 E17K (Homo sapiens, UniProt P31749, E17K); test: Live cell AKT1 E17K target engagement by NanoBRET competitive probe displacement in HEK293 cells; assay type: binding; details: NanoBRET live cell target engagement, HEK293 cells, 2 h at 37° C.
T1 construct: expressed in transfected cells; host or cells: HEK293
T1 sequence (P31749 whole entry E17K): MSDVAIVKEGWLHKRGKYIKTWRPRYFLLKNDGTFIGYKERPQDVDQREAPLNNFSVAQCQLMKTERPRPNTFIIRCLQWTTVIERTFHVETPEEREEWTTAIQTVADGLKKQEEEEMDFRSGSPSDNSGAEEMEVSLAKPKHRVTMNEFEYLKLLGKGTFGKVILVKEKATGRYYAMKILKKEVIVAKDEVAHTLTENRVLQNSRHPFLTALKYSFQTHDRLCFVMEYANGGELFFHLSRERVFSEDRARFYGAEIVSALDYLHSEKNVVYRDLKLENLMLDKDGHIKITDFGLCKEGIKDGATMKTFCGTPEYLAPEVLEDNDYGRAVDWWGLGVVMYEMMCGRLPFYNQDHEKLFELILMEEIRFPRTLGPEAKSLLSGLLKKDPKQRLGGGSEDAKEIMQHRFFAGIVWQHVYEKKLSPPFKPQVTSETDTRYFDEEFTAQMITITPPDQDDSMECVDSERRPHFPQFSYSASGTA
Outline: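 Competitive probe displacement is quantified as loss of BRET (E600/E460) in transfected HEK293 cells expressing the kinase–NanoLuc fusion. Cells are incubated 2 h at 37° C with compound dilutions and tracer at approximately EC50.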

AKT1 WT = target: T2, AKT1 WT (Homo sapiens, UniProt P31749); test: Live cell AKT1 WT target engagement by NanoBRET competitive probe displacement in HEK293 cells; assay type: binding; details: NanoBRET live cell target engagement, HEK293 cells, 2 h at 37° C.; read-out: AKT1 WT IC50
T2 construct: expressed in transfected cells; host or cells: HEK293
T2 sequence (P31749 whole entry): as the sequence (P31749 whole entry E17K) above, with K17E counted along it

AKT2 = target: T3, AKT2 (Homo sapiens, UniProt P31751); test: Live cell AKT2 target engagement by NanoBRET competitive probe displacement in HEK293 cells; assay type: binding; details: NanoBRET live cell target engagement, HEK293 cells, 2 h at 37° C.; read-out: AKT2 IC50
T3 construct: expressed in transfected cells; host or cells: HEK293
T3 sequence (P31751 whole entry): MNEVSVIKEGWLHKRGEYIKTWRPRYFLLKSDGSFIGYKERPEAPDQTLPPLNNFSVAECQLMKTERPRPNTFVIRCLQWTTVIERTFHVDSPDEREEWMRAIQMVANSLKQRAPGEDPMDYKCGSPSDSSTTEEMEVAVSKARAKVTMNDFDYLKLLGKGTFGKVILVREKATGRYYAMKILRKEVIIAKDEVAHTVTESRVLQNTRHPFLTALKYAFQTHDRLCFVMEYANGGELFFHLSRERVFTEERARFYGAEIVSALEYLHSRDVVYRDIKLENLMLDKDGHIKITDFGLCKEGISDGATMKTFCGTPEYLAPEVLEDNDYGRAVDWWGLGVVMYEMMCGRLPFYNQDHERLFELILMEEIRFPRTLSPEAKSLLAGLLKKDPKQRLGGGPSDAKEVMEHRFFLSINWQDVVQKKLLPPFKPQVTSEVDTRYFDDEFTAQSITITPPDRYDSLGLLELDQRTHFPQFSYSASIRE

| Structure (SMILES) | IC50 ([1]; Homo sapiens, LAPC4, 72 h) [nM] | IC50 (AKT1 E17K) [nM] | IC50 (AKT1 WT) [nM] | IC50 (AKT2) [nM] | IC50 [1] [nM] |
| --- | --- | --- | --- | --- | --- |
| Nc1ncccc1-c1nc2ccc(-n3cccn3)nc2n1-c1ccc2c(c1)CC[C@@H]2NC(=O)c1cnc(C(F)F)cn1 [Compound 322] | 2550 | 274 | 63.5 | 1330 | – |
| CN1CCC(N[C@H]2CCc3cc(-n4c(-c5cccnc5N)nc5ccc(-n6cccn6)nc54)ccc32)CC1 [Compound 274] | > 10000 | > 1000 | 593 | 5000 | – |
| CN(C)c1cc(C(=O)N[C@H]2CCc3cc(-n4c(-c5cccnc5N)nc5ccc(-n6cccn6)nc54)ccc32)ccn1 [Compound 63, (S)—N-(5-(2-(2-aminopyridin-3-yl)-5-(1H-pyrazol-1-yl)-3H-imidazo[4,5-b]pyridin-3-yl)-2,3-dihydro-1H-inden-1-yl)-2-(dimethylamino)isonicotinamide] | 970 | 73.9 | 2.57 | 12.6 | – |
| Nc1ncccc1-c1nc2ccc(-n3cccn3)nc2n1-c1ccc2c(c1)CC[C@@H]2NC(=O)COc1ccon1 [Compound 5, (S)—N-(5-(2-(2-aminopyridin-3-yl)-5-(1H-pyrazol-1-yl)-3H-imidazo[4,5-b]pyridin-3-yl)-2,3-dihydro-1H-inden-1-yl)-2-(isoxazol-3-yloxy)acetamide] | 9300 | > 1000 | 129 | 1410 | – |
| Nc1ncccc1-c1nc2ccc(-n3cccn3)nc2n1-c1ccc2c(c1)CC[C@@H]2n1cnnc1CC1CC1 [Compound 384] | 1260 | 93.9 | 13.2 | 525 | – |
| Nc1ncccc1-c1nc2ccc(-n3cccn3)nc2n1-c1ccc2c(c1)CC[C@@H]2NC(=O)c1ccnc2c1CCO2 [Compound 225] | 8430 | 408 | 11.3 | 343 | – |
| Cn1nc(C(=O)N[C@H]2CCc3cc(-n4c(-c5cccnc5N)nc5ccc(-n6cccn6)nc54)ccc32)c2c1OCC2 [Compound 390] | > 10000 | 31.8 | 15.8 | 105 | – |
| Cn1cc(C(=O)N[C@H]2CCc3cc(-n4c(-c5cccnc5N)nc5ccc(-n6cccn6)nc54)ccc32)ccc1=O [Compound 24, (S)—N-(5-(2-(2-aminopyridin-3-yl)-5-(1H-pyrazol-1-yl)-3H-imidazo[4,5-b]pyridin-3-yl)-2,3-dihydro-1H-inden-1-yl)-1-methyl-6-oxo-1,6-dihydropyridine-3-carboxamide] | 6360 | 232 | 55.1 | 846 | – |
| COc1ccc(C(=O)N[C@H]2CCc3cc(-n4c(-c5cccnc5N)nc5ccc(-n6nccn6)nc54)ccc32)cn1 [Compound 371] | 1050 | 47.8 | 15.4 | 1280 | – |
| Cc1ncc(F)cc1C(=O)N[C@H]1CCc2cc(-n3c(-c4cccnc4N)nc4ccc(-n5nccn5)nc43)ccc21 [Compound 382] | 4150 | 92.3 | 13.1 | 546 | – |
| Cc1cc(C(=O)N[C@H]2CCc3cc(-n4c(-c5cccnc5N)nc5ccc(-n6cccn6)nc54)ccc32)cnc1C(F)F [Compound 60, (S)—N-(5-(2-(2-aminopyridin-3-yl)-5-(1H-pyrazol-1-yl)-3H-imidazo[4,5-b]pyridin-3-yl)-2,3-dihydro-1H-inden-1-yl)-6-(difluoromethyl)-5-methylnicotinamide] | 741 | 62.1 | 2.5 | 31.5 | – |
| Nc1ncccc1-c1nc2ccc(-n3nccn3)nc2n1-c1ccc2c(c1)CC(F)[C@@H]2NC(=O)c1ccc(C(F)F)nc1 (stereo partly shown) [Compound 350] | – | 94.4 | 11.5 | 423 | 885 |
| Nc1ncccc1-c1nc2ccc(-n3nccn3)nc2n1-c1ccc2c(c1)CC[C@@H]2NC(=O)c1ccc(C(F)F)nc1 [Compound 65, (S)—N-(5-(2-(2-aminopyridin-3-yl)-5-(2H-1,2,3-triazol-2-yl)-3H-imidazo[4,5-b]pyridin-3-yl)-2,3-dihydro-1H-inden-1-yl)-6-(difluoromethyl)nicotinamide] | 925 | 292 | 19.4 | 1070 | – |
| Nc1ncccc1-c1nc2ccc(-n3cccn3)nc2n1-c1ccc2c(c1)CC[C@@H]2NC(=O)c1cnc(C(F)F)c(Cl)c1 [Compound 365] | 444 | 26.5 | 8.58 | 24.9 | – |
| Nc1ncccc1-c1nc2ccc(-n3cccn3)nc2n1-c1ccc2c(c1)CC[C@@H]2NC(=O)c1ccc(F)c(F)c1 [Compound 262] | 2340 | 68.1 | 8.14 | 211 | – |
| Cc1ccncc1C(=O)N[C@H]1CCc2cc(-n3c(-c4cccnc4N)nc4ccc(-n5cccn5)nc43)ccc21 [Compound 31, (S)—N-(5-(2-(2-aminopyridin-3-yl)-5-(1H-pyrazol-1-yl)-3H-imidazo[4,5-b]pyridin-3-yl)-2,3-dihydro-1H-inden-1-yl)-4-methylnicotinamide] | 7880 | 366 | 33.9 | 470 | – |
